Data on one compound can be found in patent US7323447B2, “Hepatitis C virus inhibitors” (Bristol-Myers Squibb Company, priority 2005, dated 2008).

Assay [1] addresses T1, HCV NS3/4A protease complex (BMS strain) (UniProt P27958).
T1 construct: other: HCV NS3/4A enzyme assay; said of H77 and J4L6S; fused on or other part: Three-lysine solubilising tail at the NS4A C-terminus and a His tag from pET21b (Ni-NTA purification), for the H77 and J4L6S constructs
Kind of assay: FRET peptide assay to monitor HCV NS3/4A proteolytic activity, BMS strain. The format is biochemical, Hepatitis C virus (genotype 1a). Particulars: read-out: IC50 Range; HCV NS3/4A enzyme assay; Table 1. In a few lines:
(§1)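 Recombinant NS3/4A (BMS strain, genotype 1a, >90% pure) cleaving FRET depsipeptide RET S1 (EDANS/DABCYL) at 2 μM; enzyme 2-3 nM (300 pM with 50 μg/ml BSA for sensitive runs). Buffer 50 mM HEPES pH 7.5, 0.15 M NaCl, 0.1% Triton, 15% glycerol, 10 mM βME; fluorescence followed in real time.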

Assay [2] deals with T2, HCV NS3/4A protease complex (BMS strain) (UniProt P27958, species not given/STRAIN_BMS).
T2 construct: other: BMS strain; said of H77 and J4L6S; These are given only for the H77 and J4L6S constructs
The description is as above. The format is biochemical, Hepatitis C virus (genotype 1a). Particulars: read-out: IC50 against the NS3/4A BMS strain in the enzyme assay; BMS strain. The method in brief: as §1

T2 sequence (P27958 1027-1657, change not shown, one chain of several): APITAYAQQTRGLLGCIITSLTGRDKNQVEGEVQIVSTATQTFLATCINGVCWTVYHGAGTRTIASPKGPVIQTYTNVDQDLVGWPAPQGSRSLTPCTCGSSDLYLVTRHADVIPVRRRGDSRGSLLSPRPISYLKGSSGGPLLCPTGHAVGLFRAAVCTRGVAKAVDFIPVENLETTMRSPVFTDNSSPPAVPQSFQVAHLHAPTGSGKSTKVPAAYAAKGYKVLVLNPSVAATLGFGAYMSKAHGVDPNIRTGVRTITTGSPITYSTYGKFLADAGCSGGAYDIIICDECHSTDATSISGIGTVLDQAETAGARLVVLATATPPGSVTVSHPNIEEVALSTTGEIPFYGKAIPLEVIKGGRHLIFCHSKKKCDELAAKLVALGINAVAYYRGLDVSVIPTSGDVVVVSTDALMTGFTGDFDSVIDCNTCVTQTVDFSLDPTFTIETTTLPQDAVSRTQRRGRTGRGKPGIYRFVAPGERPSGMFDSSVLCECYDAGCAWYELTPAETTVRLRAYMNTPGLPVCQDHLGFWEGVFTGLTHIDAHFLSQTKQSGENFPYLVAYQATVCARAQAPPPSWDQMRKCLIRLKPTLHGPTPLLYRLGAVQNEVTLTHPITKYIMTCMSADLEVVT
T1 sequence (P27958 1027-1657, one chain of several): as the sequence (P27958 1027-1657, change not shown, one chain of several) above

As to `C=C[C@@H]1C[C@]1(NC(=O)[C@@H]1C[C@@H](OC(=O)N2Cc3cccc(F)c3C2)CN1C(=O)[C@@H](OC(=O)NC(C)(C)C)C(C)(C)C)C(=O)NS(=O)(=O)C1CC1` [Example 56Compound 56], the IC50 in assay [1] is less than 100 nM; in assay [2], 99 nM.
